Results as given in patent US7504391B2, “Selective D1/D5 receptor antagonists for the treatment of obesity and CNS disorders” (Schering Corporation, priority 2003, dated 2009).
Read-outs that look alike come from different tables or passages of the source.

Key:
human D1 receptors [1] = target: T1, human D1 receptors (Homo sapiens, UniProt P21728); assay: Radioligand binding competition assay at D1 receptor
T1 construct: expressed in transfected cells; host or cells: Ltk- cells (mouse fibroblasts); membrane preparation
T1 sequence (P21728 whole entry): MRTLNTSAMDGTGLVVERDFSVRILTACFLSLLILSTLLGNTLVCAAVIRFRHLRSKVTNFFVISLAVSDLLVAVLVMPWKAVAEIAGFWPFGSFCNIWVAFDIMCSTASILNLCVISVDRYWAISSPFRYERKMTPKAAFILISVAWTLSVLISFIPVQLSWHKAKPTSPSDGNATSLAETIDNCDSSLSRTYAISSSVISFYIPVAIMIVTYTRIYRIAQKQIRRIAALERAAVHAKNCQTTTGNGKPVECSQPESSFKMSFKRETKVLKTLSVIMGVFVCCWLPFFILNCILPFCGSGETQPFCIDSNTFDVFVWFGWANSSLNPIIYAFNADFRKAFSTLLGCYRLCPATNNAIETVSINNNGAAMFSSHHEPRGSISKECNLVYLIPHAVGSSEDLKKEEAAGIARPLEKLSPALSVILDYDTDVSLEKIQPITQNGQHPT
Protocol: (§1) Affinity values (Ki) of compounds at human D1 and D2 receptors were ascertained using radioligand binding competition assays. Ltk-cells expressing D1 and D2 (long variant) receptors were lysed in hypotonic buffer for membrane preparation. Membranes were incubated with various concentrations of test compound and 1 nM [3H] of a compound of formula III and 0.2 nM [3H] Methylspiperone for D1 and D2 assays, respectively. Non-specific binding was defined as binding in the presence of 10 micromolar of a compound of formula III for D1 assays and 10 micromolar butaclamol for […]. Following incubation to equilibrium (1 hour at room temperature), bound radioligand was separated from free by rapid filtration. Bound radioactivity on the dried filters was quantified by liquid scintillation counting.
(§2) Selectivity is determined by dividing Ki for D2 receptor by Ki for D1 receptor.

human D1 receptors [2] = assay: as above; details: Ki for D2 receptor divided by Ki for D1 receptor
Protocol: as §1, §2

[3] = class by Ki (D1) and selectivity (Ki D2 / Ki D1), human D1 and D2 (long variant) receptors, Ltk- cell membranes, read-out: D1 binding and D2:D1 Selectivity

| Ki (human D1 receptors [1]) [nM] | Ki (human D1 receptors [1]; [3]) [nM] | Compound | also measured |
| --- | --- | --- | --- |
| – | < 10 | CN1CCc2cc(Cl)c(O)cc2C2c3cccc(C(=O)NCc4ccccc4)c3CCC21 (stereo not drawn) [13a21] | – |
| < 10 | – | CN1CCc2cc(Cl)c(O)cc2[C@H]2c3ccc(NC(=O)Nc4ccccc4Cl)cc3CC[C@@H]21 [20b5] | – |
| – | < 10 | CN1CCc2cc(Cl)c(O)cc2C2c3cccc(C(=O)NCc4ccncc4)c3CCC21 (stereo not drawn) [13a19] | – |
| – | < 100 | CN1CCc2cc(Cl)c(O)cc2[C@H]2c3cc(CN(Cc4ccccc4)S(C)(=O)=O)ccc3CC[C@@H]21 [7b7] | – |
| – | < 10 | CN1CCc2cc(Cl)c(O)cc2[C@H]2c3cccc(CNC(c4ccccc4)c4ccccc4)c3CC[C@@H]21 [5a14] | – |
| – | 10 to 50 | CCNC(=O)N(Cc1ccc(F)cc1)Cc1cccc2c1CC[C@H]1[C@H]2c2cc(O)c(Cl)cc2CCN1C [8a3] | – |
| 10 to 50 | – | CN1CCc2cc(Cl)c(O)cc2[C@H]2c3cccc(NC(=O)Nc4cc(Cl)nc(Cl)c4)c3CC[C@@H]21 [20a33] | – |
| 10 to 50 | – | CN1CCc2cc(Cl)c(O)cc2[C@H]2c3cccc(NC(=O)c4cccc5ccccc45)c3CC[C@@H]21 [18b15] | – |
| < 10 | – | CN1CCc2cc(Cl)c(O)cc2[C@H]2c3cccc(NS(=O)(=O)c4ccc(F)cc4)c3CC[C@@H]21 [19a6] | – |
| – | < 5 | CN1CCc2cc(Cl)c(O)cc2C2c3cccc(C(=O)NCCc4ccccc4)c3CCC21 (stereo not drawn) [13a7] | – |
| – | < 5 | CN1CCc2cc(Cl)c(O)cc2[C@H]2c3cccc(CNCc4ccccc4)c3CC[C@@H]21 [5a1] | – |
| < 5 | – | CN1CCc2cc(Cl)c(O)cc2[C@H]2c3cccc(NC(=O)N4CCCC4)c3CC[C@@H]21 [20a7] | – |
| < 5 | – | CN(C)C(=O)Nc1cccc2c1CC[C@H]1[C@H]2c2cc(O)c(Cl)cc2CCN1C [20a8] | – |
| – | < 10 | CN1CCc2cc(Cl)c(O)cc2C2c3cccc(C(=O)NCCc4ccccn4)c3CCC21 (stereo not drawn) [13a20] | – |
| – | < 10 | CN1CCc2cc(Cl)c(O)cc2[C@H]2c3cccc(C#N)c3CC[C@@H]21 [27a] | – |
| – | < 5 | CN(C)Cc1cccc2c1CC[C@H]1[C@H]2c2cc(O)c(Cl)cc2CCN1C [5a50] | – |
| – | < 5 | CN1CCc2cc(Cl)c(O)cc2[C@H]2c3ccc(NCc4ccccc4)cc3CC[C@@H]21 [21a1] | – |
| – | < 5 | CN1CCc2cc(Cl)c(O)cc2[C@H]2c3cccc(-c4ncc[nH]4)c3CC[C@@H]21 [25c] | – |
| – | < 10 | CN1CCc2cc(Cl)c(O)cc2C2c3cccc(C(=O)N4CCN(c5ccccn5)CC4)c3CCC21 (stereo not drawn) [13a2] | – |
| – | < 10 | CN1CCc2cc(Cl)c(O)cc2C2c3cccc(C(=O)NCc4cccnc4)c3CCC21 (stereo not drawn) [13a16] | – |
| – | 10 to 50 | CC(=O)N(Cc1cccc2c1CC[C@H]1[C@H]2c2cc(O)c(Cl)cc2CCN1C)c1ccccc1 [6a6] | – |
| < 5 | – | CN1CCc2cc(Cl)c(O)cc2[C@H]2c3ccc(NS(=O)(=O)Cc4ccccc4)cc3CC[C@@H]21 [19b31] | – |
| 10 to 50 | – | CN1CCc2cc(Cl)c(O)cc2[C@H]2c3cc(S(=O)(=O)NCc4ccccc4)ccc3CC[C@@H]21 [15l] | – |
| – | 10 to 50 | CN1CCc2cc(Cl)c(O)cc2[C@H]2c3cc(CN(Cc4ccccc4)C(=O)c4ccccc4)ccc3CC[C@@H]21 [6b1] | – |
| < 5 | – | CN1CCc2cc(Cl)c(O)cc2[C@H]2c3ccc(NC(=O)Nc4c(Cl)cccc4Cl)cc3CC[C@@H]21 [20b30] | – |
| – | < 100 | CC(C)NC(=O)N(Cc1ccc2c(c1)[C@@H]1c3cc(O)c(Cl)cc3CCN(C)[C@H]1CC2)c1ccccc1 [8b11] | – |
| – | < 10 | CN(C)C(=O)c1cccc2c1CCC1C2c2cc(O)c(Cl)cc2CCN1C (stereo not drawn) [13a12] | – |
| – | < 5 | CNC(=O)c1cccc2c1CCC1C2c2cc(O)c(Cl)cc2CCN1C (stereo not drawn) [13a24] | – |
| – | < 10 | CN1CCc2cc(Cl)c(O)cc2C2c3cccc(C(=O)NCc4ccccn4)c3CCC21 (stereo not drawn) [13a14] | – |

The next lines start with the compound.

| Compound | Ki (human D1 receptors [1]) [nM] | Ki (human D1 receptors [1]; [3]) [nM] | also measured |
| --- | --- | --- | --- |
| CN1CCc2cc(Cl)c(O)cc2[C@H]2c3ccc(NC(=O)CC4CC4)cc3CC[C@@H]21 [18a8] | < 10 | – | – |
| CN1CCc2cc(Cl)c(O)cc2[C@H]2c3ccc(NCC4CCCC4)cc3CC[C@@H]21 [21a2] | < 5 | – | – |
| CN1CCc2cc(Cl)c(O)cc2[C@H]2c3ccc(NS(=O)(=O)N(C)C)cc3CC[C@@H]21 [19b32] | < 5 | – | – |
| CN1CCc2cc(Cl)c(O)cc2[C@H]2c3ccc(NC(=O)C4CCCC4)cc3CC[C@@H]21 [18a6] | < 5 | – | – |
| CN1CCc2cc(Cl)c(O)cc2[C@H]2c3cccc(CNC4CC4)c3CC[C@@H]21 [5a38] | – | < 5 | – |
| CN1CCc2cc(Cl)c(O)cc2C(c2ccc(CN(C3CCC3)S(C)(=O)=O)cc2)C1 (stereo not drawn) [7c16] | – | < 5 | – |
| COc1ccc(OC(=O)Nc2ccc3c(c2)CC[C@H]2[C@H]3c3cc(O)c(Cl)cc3CCN2C)cc1 [24a3] | < 5 | – | – |
| COc1ccc(OC(=O)Nc2cccc3c2CC[C@H]2[C@H]3c3cc(O)c(Cl)cc3CCN2C)cc1 [24b2] | < 5 | – | – |
| COC(=O)Nc1ccc2c(c1)CC[C@H]1[C@H]2c2cc(O)c(Cl)cc2CCN1C [24a1] | – | < 5 | – |
| CN1CCc2cc(Cl)c(O)cc2[C@H]2c3ccc(NS(=O)(=O)c4cccc(C#N)c4)cc3CC[C@@H]21 [19b24] | < 10 | – | – |
| CC(NC(=O)c1ccc(C2CN(C)CCc3cc(Cl)c(O)cc32)cc1)c1ccccc1 (stereo not drawn) [13d1] | – | 10 to 50 | – |
| CC(=O)N(CC1CCCC1)c1ccc2c(c1)CC[C@H]1[C@H]2c2cc(O)c(Cl)cc2CCN1C [22a2] | – | 10 to 50 | – |
| CN1CCc2cc(Cl)c(O)cc2[C@H]2c3ccc(NC(=O)C4CC4)cc3CC[C@@H]21 [18a1] | – | < 5 | – |
| CN1CCN(C(=O)c2cccc3c2CCC2C3c3cc(O)c(Cl)cc3CCN2C)CC1 (stereo not drawn) [13a6] | – | 10 to 50 | – |
| CC(=O)Nc1ccc2c(c1)CC[C@H]1[C@H]2c2cc(O)c(Cl)cc2CCN1C [18a4] | < 10 | – | – |
| CN1CCc2cc(Cl)c(O)cc2C(c2ccc(NS(C)(=O)=O)cc2)C1 (stereo not drawn) [35a1] | – | < 5 | – |

| Compound | Ki (human D1 receptors [1]) [nM] | Ki (human D1 receptors [1]; [3]) [nM] | also measured |
| --- | --- | --- | --- |
| CN1CCc2cc(Cl)c(O)cc2C(c2ccc(NS(=O)(=O)c3ccccc3)cc2)C1 (stereo not drawn) [35a2] | – | < 10 | – |
| C[C@@H](NCc1ccc(C2CN(C)CCc3cc(Cl)c(O)cc32)cc1)C1CCCCC1 (stereo partly drawn) [5c16] | – | < 5 | – |
| CCCS(=O)(=O)Nc1ccc2c(c1)CC[C@H]1[C@H]2c2cc(O)c(Cl)cc2CCN1C [19b23] | < 5 | – | – |
| CN1CCc2cc(Cl)c(O)cc2[C@H]2c3cc(CNc4cccnc4)ccc3CC[C@@H]21 [5b46] | – | < 100 | – |
| CN1CCc2cc(Cl)c(O)cc2[C@H]2c3ccc(N(C)S(C)(=O)=O)cc3CC[C@@H]21 [compound 23] | – | < 5 | – |
| CCCN(Cc1ccc(C2CN(C)CCc3cc(Cl)c(O)cc32)cc1)C(=O)Nc1ccccc1 (stereo not drawn) [8c33] | – | < 10 | – |
| CC(=O)N(CCCCc1ccccc1)c1ccc2c(c1)[C@@H]1c3cc(O)c(Cl)cc3CCN(C)[C@H]1CC2 [22b1] | – | 10 to 50 | – |
| CN1CCc2cc(Cl)c(O)cc2C(c2ccc(CN(C)S(=O)(=O)c3ccccc3)cc2)C1 (stereo not drawn) [7c18] | – | < 5 | – |
| CN1CCc2cc(Cl)c(O)cc2[C@H]2c3ccc(NS(C)(=O)=O)cc3CC[C@@H]21 [19b1] | – | < 5 | Ki (human D1 receptors [1]; membranes of Ltk- cells expressing human D1, 1 nM [3H] compound of formula III, 1 hour at room temperature, read-out: Ki (D1)): 0.45 nM; D2:D1 ratio (selectivity) (human D1 receptors [2]): 6642 |
| CCNC(=O)Nc1ccc2c(c1)CC[C@H]1[C@H]2c2cc(O)c(Cl)cc2CCN1C [20b6] | < 5 | – | – |
| CCOC(=O)Nc1ccc2c(c1)CC[C@H]1[C@H]2c2cc(O)c(Cl)cc2CCN1C [24a2] | – | < 5 | – |
| CC(=O)N(Cc1ccc([C@H]2CNCCc3cc(Cl)c(O)cc32)cc1)C1CCC1 [34a2] | – | < 10 | – |
| CS(=O)(=O)Nc1ccc2c(c1)CC[C@@H]1NCCc3cc(Cl)c(O)cc3[C@@H]21 [30a] | – | < 10 | – |
| Oc1cc2c(cc1Cl)CCN[C@H]1CCc3c(-c4ccncc4)cccc3[C@H]21 [29c] | – | < 5 | – |
| CC(=O)N(Cc1ccc(C2CN(C)CCc3cc(Cl)c(O)cc32)cc1)C1CCC1 (stereo not drawn) [6c26] | – | < 5 | – |
| CCS(=O)(=O)Nc1ccc2c(c1)CC[C@H]1[C@H]2c2cc(O)c(Cl)cc2CCN1C [19b5] | < 5 | – | – |
